Legend:
[1] = Mercury intrusion porosimetry (pore volume, pore size distribution); assay type: physicochemical
Method: The pore volume and the pore size distribution were determined using mercury intrusion porosimetry (Micromeritics AutoPore III 9410). The determination was performed within the pore diameter interval 115 μm≥ϕ≥0.0030 μm (30 Å). The surface tension and the contact angle of mercury are set to 485 mN/m and 130°, respectively. Blank correction has been used to compensate for compaction of parts of the penetrometer system at high pressures. The test materials used were: ticagrelor granules (“3606”), final tablet blend (“3606 FB”); F-melt type C granules (“F-melt”); Ticagrelor particles from supplier 1 (“AZ”); Ticagrelor particles from supplier 2 (“DSM”); Ticagrelor particles from supplier 3 (“Omnichem”).
One of the penetrometers used for analysis of the granules was used for the reference test. The result gave a cumulative pore volume of 0.55 cm^3/g and a median pore diameter (based on volume) of 73 Å. The reference values are 0.56±0.02 cm^3/g and 75±5 Å, respectively.

[2] = Relative bioavailability study (clinical study A), plasma pharmacokinetics of ticagrelor and AR-C124910XX; assay type: in vivo, healthy male and female subjects
Method: A relative bioavailability study (hereafter referred to as clinical study A) compared the orodispersible tablet of Example 7, administered with water (after oral dispersion) and without water, to a film-coated tablet containing 90 mg of ticagrelor. In clinical study A the orodispersible tablet was also suspended in water and administered through a nasogastric tube and compared to the film-coated tablet.
This study was an open-label, randomised, four-period, four-treatment, crossover study in healthy male and female of non-childbearing potential subjects, performed at a single study centre. The study was comprised of: • A screening period of maximum 21 days; • Four treatment periods during which subjects were resident prior to the evening meal the night before dosing with ticagrelor (Day −1) until at least 48 hours after dosing; discharged on the morning of Day 3; and • A final visit within 5 to 10 days after the last administration of ticagrelor.
Subjects received single doses of ticagrelor in 4 different ways under fasted conditions. Following an overnight fast of at least 10 hours, each subject received a single dose of each treatment on 4 occasions, respectively.
The PK parameters were assessed for ticagrelor (parent) and its active metabolite AR-C124910XX based on plasma concentrations.
Pharmacokinetic parameters were summarised for each treatment using descriptive statistics. Where possible, the following descriptive statistics were presented: n, geometric mean, geometric CV, arithmetic mean, arithmetic standard deviation, median, minimum and maximum. For tmax, only n, median, minimum and maximum were presented.
Bioavailability comparison of treatments A, B and C (test product) and D (reference product) were assessed on the ratio of log-transformed Cmax, AUC0-t, and AUC of both ticagrelor and AR-C124910XX using a 2-sided 90% confidence interval (CI) approach based on an analysis of variance (ANOVA) model including fixed effects for treatment, sequence, period and subject within sequence.
All PK parameters were log-transformed prior to analysis. The estimated treatment differences and the 90% CIs on the log scale were back transformed to obtain the geometric mean ratios for each pair of treatments.

[3] = Focused Beam Reflectance Measurement (FBRM) of granules in dissolution bath; assay type: physicochemical; details: granules stored at 40° C. and 75% RH for one month
Method: Focused Beam Reflectance Measurement (FBRM) analyses were conducted in dissolution studies. The FBRM technique involves the insertion of a probe directly into a process stream, at an angle, to ensure particles can flow easily across the probe window where the measurement takes place. A laser beam is launched down the probe tube through a set of optics and focused to a tight beam spot at the sapphire window. The optics rotate at a fixed speed (typically 2 m/s) resulting in the beam spot rapidly scanning across particles as they flow past the window. As the focused beam scans across the particle system, individual particles or particle structures will backscatter the laser light to the detector. These distinct pulses of backscattered light are detected, counted, and the duration of each pulse is multiplied by the scan speed to calculate the distance across each particle. This distance is defined as the chord length, a fundamental measurement of the particle related to the particle size, and a precise and highly sensitive chord length distribution can be reported in real time, thus tracking how particle size and count change over time. […]
The integration time was set to 5 seconds. […] From that dataset kinetic curves were calculated showing different size fractions and the fraction 40-100 μm was the fraction selected for comparison. […]

[4] = Powder flow indices (Carr's index, Hausner ratio); assay type: physicochemical; details: ticagrelor powders
Excerpt: Ticagrelor powders are characterised by poor flowability, for example as indicated by a large Hausner ratio (tap density/bulk density ˜1.8-2.0).

[5] = pores <8, post-storage 1 month at 40° C./75% RH
[6] = pores >8, post-storage 1 month at 40° C./75% RH
[7] = plasma, single 90 mg ticagrelor dose, fasted, range across treatments

SMILES | Median pore diameter (vol) [1, 5] | Pore area [1, 5] | Pore volume [1, 5] | Median pore diameter (vol) ([1]; pores <8, pre-storage) | Pore area ([1]; pores <8, pre-storage) | Pore volume ([1]; pores <8, pre-storage) | Median pore diameter (vol) [1, 6] | Pore area [1, 6] | Pore volume [1, 6] | Median pore diameter (vol) ([1]; pores >8, pre-storage) | Pore area ([1]; pores >8, pre-storage) | Pore volume ([1]; pores >8, pre-storage) | median tmax ([2]; plasma, single 90 mg ticagrelor dose, fasted, across OD (with water, without water, NG tube) and IR tablets) | terminal mean t1/2λz [2, 7] | Plasma metabolite AUC as % of plasma ticagrelor AUC ([2]; range across treatments) | Plasma metabolite Cmax as % of plasma ticagrelor Cmax ([2]; range across treatments) | Particle dissolution by FBRM after storage compared with non-stored granules [3] | Hausner ratio (tap density/bulk density) [4] | Tmax ([2]; both sexes, human, oral, plasma, single 90 mg ticagrelor dose, fasted, across OD (with water, without water, NG tube) and IR tablets, read-out: median tmax)
CCCSc1nc(N[C@@H]2C[C@H]2c2ccc(F)c(F)c2)c2nnn([C@@H]3C[C@H](OCCO)[C@@H](O)[C@H]3O)c2n1 [Omnichem] | 0.5 μm | 9 m^2/g | 0.18 cm^3/g | 0.5 μm | 12 m^2/g | 0.28 cm^3/g | 36 μm | <0.1 m^2/g | 0.61 cm^3/g | 35 μm | <0.1 m^2/g | 0.53 cm^3/g |  |  |  |  |  |  | 
CCCSc1nc(N[C@@H]2C[C@H]2c2ccc(F)c(F)c2)c2nnn([C@@H]3C[C@H](O)[C@@H](O)[C@H]3O)c2n1 [AR-C124910XX] |  |  |  |  |  |  |  |  |  |  |  |  | 2 to 3 h | 9.35 to 9.48 h | 38.2-40.5% | 27.1-30.0% |  |  | 
CCCSc1nc(N[C@@H]2C[C@H]2c2ccc(F)c(F)c2)c2nnn([C@@H]3C[C@H](OCCO)[C@@H](O)[C@H]3O)c2n1 [AZ] | 1.1 μm | 14 m^2/g | 0.23 cm^3/g | 0.9 μm | 14 m^2/g | 0.23 cm^3/g | 27 μm | 0.1 m^2/g | 0.69 cm^3/g | 24 μm | 0.1 m^2/g | 0.62 cm^3/g |  |  |  |  | slower particle dissolution |  | 
CCCSc1nc(N[C@@H]2C[C@H]2c2ccc(F)c(F)c2)c2nnn([C@@H]3C[C@H](OCCO)[C@@H](O)[C@H]3O)c2n1 [ticagrelor, (1S,2S,3R,5S)-3-[7-{[(1R,2S)-2-(3,4-difluorophenyl)cyclopropyl]amino}-5-(propylthio)-3H[1,2,3]-triazolo[4,5-d]pyrimidin-3-yl]-5-(2-hydroxyethoxy)cyclopentane-1,2-diol] |  |  |  |  |  |  |  |  |  |  |  |  |  | 7.99 to 8.21 h |  |  |  | 1.8-2.0 | ~2 h
CCCSc1nc(N[C@@H]2C[C@H]2c2ccc(F)c(F)c2)c2nnn([C@@H]3C[C@H](OCCO)[C@@H](O)[C@H]3O)c2n1 [DSM] | 1.5 μm | 12 m^2/g | 0.29 cm^3/g | 1.2 μm | 13 m^2/g | 0.28 cm^3/g | 20 μm | 0.1 m^2/g | 0.64 cm^3/g | 19 μm | 0.1 m^2/g | 0.59 cm^3/g |  |  |  |  |  |  | 

Source: US10729655B2, “Orally disintegrating tablets” (AstraZeneca AB, priority 2016, dated 2020)
